In patent US20230255965A1, “TRPV4 INHIBITOR AS A THERAPEUTIC AGENT FOR OCULAR DISEASES” (RaQualia Pharma Inc., priority 2020, published 2023):
Like-named read-outs stand apart in the source and are kept apart here.

Assays:
[1] = system: mouse retinal vein occlusion model; test: Histological evaluation for retinal vein occlusion: thickness of the retinal inner nuclear layer (INL), HE staining; format: in vivo; details: single intravitreal administration of 2 μL, 24 hours after irradiation, vs vehicle
Method: (§1) Eight-week-old male ddY mice are anesthetized with a mixture of ketamine (120 mg/kg) and xylazine (6 mg/kg) administered intramuscularly. After that, 0.15 mL of a photosensitizer, rose bengal (20 mg/kg) is administered into the tail vein, and a laser (wavelength 532 nm) is irradiated into a vein three optic disc diameters away from the optic disc in the mouse right eye to occlude the retinal vein and form a pathological condition. Laser irradiation is performed using an attachment of Micron4 (Phoenix Research lab., CA, USA), which is a fundus imaging device, under prescribed laser irradiation conditions (wavelength 532 nm, spot size 50 μm, irradiation time 5 seconds, laser power 50 mW). The vein is occluded by 10 to 15 laser irradiations per vein.
Immediately after laser irradiation, a TRPV4 inhibitor is administered, and 24 hours after irradiation, the eyeball is removed and a retinal histopathology specimen is prepared. Hematoxylin-eosin (HE) staining is performed to measure the thickness of the retinal inner nuclear layer (INL). Other stains (e.g., TUNEL stain) may be used for analysis as needed.
Administration of a TRPV4 inhibitor is performed by intravitreal administration (local administration). The conditions of the solution for administration are investigated in advance, and the concentration for intravitreal administration is determined. However, if the conditions for systemic administration are met, systemic administration may be included in the group composition. For intravitreal administration, the dosage should be 2 μL/eye as a single dose. For systemic administration, the number of doses and dosage should be determined after a separate consideration.
After a single intravitreal administration of 2 μL of a TRPV4 inhibitor (25 μM, 250 μM) or vehicle, whether the TRPV4 inhibitor restores the retinal edema is evaluated.

[2] = system: human retinal microvascular endothelial cells (HRMECs); test: Cell permeability using human retinal microvascular endothelial cells, transendothelial electrical resistance (TEER); format: cell-based; details: for inhibition at 10 µM: Homo sapiens, HRMEC, read-out: inhibition rate of increased vascular permeability (TEER); for change of transepithelial electrical resistance (TEER values): 24 hours after addition
Method: Human retinal microvascular endothelial cells (HRMECs) are seeded onto Transwell inserts at a density of 1.0×10^5 cells/mL. The medium is changed every other day and the cells are cultured for 7 days. Transendothelial electrical resistance (TEER) is measured using a measurement device and cup-shaped electrode (Endohm-6; World Precision Instruments, USA). One hour after the addition of a TRPV4 inhibitor (final concentration: 1 μM, 10 μM) or buffer for evaluation to cells, VEGF (final concentration: 10 ng/mL) or GSK1016790A, a TRPV4 agonist (final concentration: 10 nM) is added, and 24 hours after the addition, transepithelial electrical resistance values (TEER values) is measured 24 hours after addition. The transepithelial electrical resistance value (TEER value) is an index for evaluating barrier functions such as tight junctions of cells.

diabetic model mice = details: cited from earlier work; for retinal edema: single intravitreal administration
[3] = system: tumor necrosis factor alpha (TNFα); test: Expression of TNFα in retina of mouse retinal vein occlusion model by Western blotting; format: in vivo; details: 250 μM, 2 μL intravitreal immediately after vascular occlusion, retina 1 day after occlusion
Method: as §1
Using the same method as in Example 3, the retinal veins of mice are occluded by laser irradiation into the veins of the eye.
Immediately after laser irradiation, 2 μL of a TRPV4 inhibitor (250 μM) is administered intravitreally. One day after vascular occlusion, the mice are euthanized by cervical dislocation, and then retinas isolated from removed eyeballs are evaluated by Western blotting.

[4] = system: mouse model of retinal vein occlusion; test: Late drug administration 7 days after vascular occlusion: suppression of retinal thinning (OCT); format: in vivo; details: 250 μM, 2 μL intravitreal 7 days after occlusion, measured 1 day after administration
Method: as §1
(§2) Seven days after vascular occlusion, the retina is damaged, the retinal layer structure is thinned, the blood flow is reduced, and a retinal nonperfusion area exists. Whether the TRPV4 inhibitor restores this condition is evaluated. […]
(§3) Seven days after vascular occlusion, 2 μL of a TRPV4 inhibitor (250 μM) or vehicle is administered intravitreally. One day after administration (8 days after occlusion), the retinal layers are imaged using optical coherence tomography (OCT) and intraocular blood flow is measured using laser speckle.

[5] = system: mouse model of retinal vein occlusion; test: Late drug administration 7 days after vascular occlusion: ocular blood flow (laser speckle); format: in vivo; details: 250 μM, 2 μL intravitreal 7 days after occlusion, measured 1 day after administration
Method: as §1, §2, §3

[6] = system: mouse model of retinal vein occlusion; test: Late drug administration 7 days after vascular occlusion: retinal nonperfusion area (FITC-dextran flat mount); format: in vivo; details: 250 μM, 2 μL intravitreal 7 days after occlusion, 1 day after administration
Method: as §1, §2
Seven days after vascular occlusion, 2 μL of a TRPV4 inhibitor (250 μM) or vehicle is administered intravitreally. One day after administration (8 days after occlusion), the retinal layers are imaged using optical coherence tomography (OCT) and intraocular blood flow is measured using laser speckle. […]

[7] = final concentration 10 μM, compared to VEGF-added group, 24 hours

Cc1c(C(=O)Nc2cccc(C(F)(F)F)c2)cc(-c2ccccc2)n1CCCN1CCOCC1 [Compound D, N-(3-(trifluoromethyl)phenyl)-2-methyl-1-(3-morpholinopropyl)-5-phenyl-1H-pyrrole-3-carboxamide]
inhibition rate of the increase in the thickness of the retinal inner nuclear layer (INL) ([1]; 250 μM): 64% | inhibition at 10 µM [2, 7]: ≥ 30%

CC(C)C[C@H](NC(=O)c1cc2ccccc2s1)C(=O)N1CCN(C(=O)[C@H](CO)NS(=O)(=O)c2ccc(Cl)cc2Cl)CC1 [GSK1016790A]
change of transepithelial electrical resistance (TEER values) ([2]; GSK1016790A final concentration 10 nM): decreases transepithelial electrical resistance

CC(C)(O)c1cnc(N2C[C@@]3(CCC[C@](C)(Cn4cnc5ccc(C#N)cc54)C3)OC2=O)cn1 [Compound B, 1-(((5S,7S)-3-(5-(2-hydroxypropan-2-yl)pyrazin-2-yl)-7-methyl-2-oxo-1-oxa-3-azaspiro[4.5]decan-7-yl)methyl)-1H-benzo[d]imidazole-6-carbonitrile]
inhibition rate of the increase in the thickness of the retinal inner nuclear layer (INL) ([1]; 250 μM): 62% | inhibition at 10 µM ([2]; 24 h): ≥ 30%

O=C(NC1(c2ccccc2)CC1)c1c(CN2CCC(N3CCCCC3)CC2)c(-c2cccc(C(F)(F)F)c2)nc2cc(Br)ccc12 [Compound C, 3-(1,4′-bipiperidin-1′-ylmethyl)-7-bromo-N-(1-phenylcyclopropyl)-2-[3-(trifluoromethyl)phenyl]-4-quinolinecarboxamide]
inhibition rate of the increase in the thickness of the retinal inner nuclear layer (INL) ([1]; 250 μM): 59% | retinal thinning (diabetic model mice; Non-Patent Literature 11): not suppressed | retinal edema (diabetic model mice; Non-Patent Literature 11): it does not | retinal edema (diabetic model mice; Patent Literature 2): suppresses retinal edema | inhibition at 10 µM [2, 7]: ≥ 30%

VEGF
change of transepithelial electrical resistance (TEER values) ([2]; VEGF final concentration 10 ng/mL): decreases transepithelial electrical resistance

O=C([C@H](O)c1cccc(Cl)c1)N1CCc2nc(C3(c4ccccc4)CC3)[nH]c(=O)c2C1 [Compound A, (R)-6-(2-(3-chlorophenyl)-2-hydroxyacetyl)-2-(1-phenylcyclopropyl)-5,6,7,8-tetrahydropyrido[4,3-d]pyrimidin-4(3H)-one]
inhibition rate of the increase in TNF expression [3]: ≥ 50% | inhibition of retinal thinning [4]: ≥ 30% | improvement of ocular blood flow reduction rate [5]: ≥ 30% | inhibition rate of nonperfusion areas in the retina [6]: ≥ 50% | inhibition rate of the increase in the thickness of the retinal inner nuclear layer (INL) ([1]; 25 μM): 40% | inhibition rate of the increase in the thickness of the retinal inner nuclear layer (INL) ([1]; 250 μM): 76% | inhibition rate of increased vascular permeability (TEER) ([2]; final concentration 1 μM, 10 μM, VEGF 10 ng/mL or GSK1016790A 10 nM added, 24 hours): ≥ 50%
